Earlier results, collected in patent US8187640B2, “Low viscosity liquid polymeric delivery system” (Dunn Research & Consulting, LLC, priority 2009, dated 2012).

Test system: Male Sprague Dawley rats
Conditions: given in an aqueous solution

buprenorphine HCL
Duration of efficacy in the rat tail flick test: about 5 hours
